Reference: US12274732B2, “Anti-pathogen composition and methods of use thereof” (Tenfold Technologies, LLC, priority 2017, dated 2025)
In brackets after ≈: the same amount, converted by molar mass. Where two headings read alike, the source gives them in different places. Positions of bridges follow the written chain, without caps; N, C: chain ends. Non-standard residues stand in square brackets, D forms with d. Residues, ends and D or L forms follow the SMILES beside them. ξ: configuration not given here. *: point of attachment. Pentadecanoyl(3ξ-OH,15-Gua) = N=C(N)NCCCCCCCCCCCCC(O)CC(=O)*; d(aThr) = C[C@@H](O)[C@@H](N)C(=O)O

Key:
Assay type in all cases: cell-based
[1] = test system: Vancomycin-resistant Enterococcus faecium (VRE); assay: In vitro antimicrobial activity against VRE; conditions: for VRE IC50: Table 5, extracts tested at 8-200 μg/mL
Description: (§1) Fifty organic extracts were prepared from 25 whole broth of four microbial strains (MS1479, MS2379, MS2820, and MS2414), which were fermented in different media for the antimicrobial testing. Note each whole broth culture generated one n-butanol extract from cultural supernatant and one methanol extract from cell pellets.
(§2) The antimicrobial activities of the 50 organic extracts were studied against three fungal pathogens—Candida albicans, Aspergillus fumigatus, and Cryptococcus neoformans—and five bacterial strains-Methicillin-resistant Staphylococcus aureus (MIRSA), Escherichia coli, Pseudomonas aeruginosa, Klebsiella pneumoniae, and Vancomycin-resistant Enterococcus faecium (VRE) (FIG. 2). The test concentrations for all extracts were in the range of 8-200 μg/mL (Table 3).
(§3) The antimicrobial activities of identified fusaricidins were in an in vitro study against several clinically relevant microbes. […] For the in-vitro assays against bacteria, fusaricidins were tested against methicillin-resistant Staphylococcus aureus, vancomycin-resistant Enterococcus faecium, Escherichia coli, and Pseudomonas aeruginosa using four antibacterial drugs methicillin, vancomycin, cefotaxime, and meropenem as controls. […] Fusaricidins were also tested against fungal pathogens Cryptococcus neoformans, Candida albicans, and Aspergillus fumigatus and compared with two antifungal drugs, fluconazole and amphotericin B (Table 13). Moreover, the anti-parasitic activity was also tested against L. donovani and T. brucei (Table 14).

Escherichia coli = assay: In vitro antimicrobial activity against Escherichia coli
Description: as §1, §2, §3

Cryptococcus neoformans = assay: In vitro antimicrobial activity against Cryptococcus neoformans; conditions: for C. neoformans IC50: Table 5, extracts tested at 8-200 μg/mL
Description: as §1, §2
The potent activities against the fungal pathogen C. neoformans and the gram-positive bacteria S. aureus, MRSA, and M. intracellulare were also shown in the crude extracts (FIG. 7).
as §3

Pseudomonas aeruginosa = assay: In vitro antimicrobial activity against Pseudomonas aeruginosa
Description: as §1, §2, §3

Klebsiella pneumoniae = assay: In vitro antimicrobial activity against Klebsiella pneumoniae; conditions: Klebsiella pneumoniae; test conc. 200-8 μg/mL (extracts), 100-4 or 10-0.4 μg/mL (drugs); read-out: K pneumoniae IC50
Description: as §1, §2

Aspergillus fumigatus = assay: In vitro antimicrobial activity against Aspergillus fumigatus; conditions: for A. fumigatus IC50: Table 5, extracts tested at 8-200 μg/mL
Description: as §1, §2, §3

Candida albicans = assay: In vitro antimicrobial activity against Candida albicans; conditions: for IC50: Candida albicans; for C. albicans IC50: Table 5, extracts tested at 8-200 μg/mL
Description: as §1, §2, §3

[2] = test system: Methicillin-resistant Staphylococcus aureus (MRSA); assay: In vitro antimicrobial activity against MRSA; conditions: for MRS IC50: Table 5, extracts tested at 8-200 μg/mL
Description: as §1, §2, §3

[3] = test conc. 200-8 μg/mL (extracts), 100-4 or 10-0.4 μg/mL (drugs), read-out: VRE IC50
[4] = Escherichia coli, test conc. 200-8 μg/mL (extracts), 100-4 or 10-0.4 μg/mL (drugs), read-out: E. coli IC50
[5] = Cryptococcus neoformans, test conc. 200-8 μg/mL (extracts), 100-4 or 10-0.4 μg/mL (drugs), read-out: C. neoformans IC50
[6] = Pseudomonas aeruginosa, test conc. 200-8 μg/mL (extracts), 100-4 or 10-0.4 μg/mL (drugs), read-out: P. aeruginosa IC50
[7] = Aspergillus fumigatus, test conc. 200-8 μg/mL (extracts), 100-4 or 10-0.4 μg/mL (drugs), read-out: A. fumigatus IC50
[8] = test conc. 200-8 μg/mL (extracts), 100-4 or 10-0.4 μg/mL (drugs), read-out: C. albicans IC50
[9] = Staphylococcus aureus, MRSA, test conc. 200-8 μg/mL (extracts), 100-4 or 10-0.4 μg/mL (drugs), read-out: MRS IC50
[10] = Table 13, Vancomycin-resistant Enterococcus faecium ATCC 700221
[11] = Table 13, Escherichia coli ATCC 2452
[12] = Table 12, highest test conc. fusaricidins 20, controls 100 μg/mL
[13] = Table 12, lowest concentration that allows no detectable growth
[14] = Table 13, Pseudomonas aeruginosa ATCC 2108
[15] = Table 13, Methicillin-resistant Staphylococcus aureus ATCC 1708

CO/N=C(\C(=O)N[C@@H]1C(=O)N2C(C(=O)O)=C(COC(C)=O)CS[C@H]12)c1csc(N)n1 [Cefotaxime]
IC50 ([1]; ATCC 700221 / VRE, Table 13, Vancomycin-resistant Enterococcus faecium ATCC 700221, read-out: VRE IC50 (50% growth inhibitory concentration)): > 100 mg/L | MIC ([1]; ATCC 700221 / VRE, Table 13, Vancomycin-resistant Enterococcus faecium ATCC 700221, read-out: VRE MIC (minimum inhibitory concentration)): > 100 mg/L | VRE IC50 [1]: >100 mg/L | IC50 [1, 3]: > 100 mg/L | IC50 (Escherichia coli; ATCC2452, Table 13, Escherichia coli ATCC 2452, read-out: E. coli IC50 (50% growth inhibitory concentration)): > 100 mg/L | MIC (Escherichia coli; ATCC2452, Table 13, Escherichia coli ATCC 2452, read-out: E. coli MIC (minimum inhibitory concentration)): > 100 mg/L | IC50 (Escherichia coli; [4]): 80.2 mg/L (≈ 176 µM) | IC50 (Cryptococcus neoformans; [5]): > 100 mg/L | C. neoformans IC50 (Cryptococcus neoformans): >100 mg/L | IC50 (Pseudomonas aeruginosa; ATCC2108, Table 13, Pseudomonas aeruginosa ATCC 2108, read-out: P. aeruginosa IC50 (50% growth inhibitory concentration)): 5.3 mg/L (≈ 11.6 µM) | MIC (Pseudomonas aeruginosa; ATCC2108, Table 13, Pseudomonas aeruginosa ATCC 2108, read-out: P. aeruginosa MIC (minimum inhibitory concentration)): 25 mg/L (≈ 54.9 µM) | IC50 (Pseudomonas aeruginosa; [6]): 11.8 mg/L (≈ 26 µM) | IC50 (Klebsiella pneumoniae): > 100 mg/L | IC50 (Aspergillus fumigatus; [7]): > 100 mg/L | A. fumigatus IC50 (Aspergillus fumigatus): >100 mg/L | IC50 (Candida albicans; [8]): > 100 mg/L | C. albicans IC50 (Candida albicans): >100 mg/L | IC50 ([2]; ATCC 1708 / MRSA, Table 13, Methicillin-resistant Staphylococcus aureus ATCC 1708, read-out: MRSA IC50 (50% growth inhibitory concentration)): 15.6 mg/L (≈ 34.3 µM) | MIC ([2]; ATCC 1708 / MRSA, Table 13, Methicillin-resistant Staphylococcus aureus ATCC 1708, read-out: MRSA MIC (minimum inhibitory concentration)): 25 mg/L (≈ 54.9 µM) | IC50 [2, 9]: 14.8 mg/L (≈ 32.5 µM)

O=C(O)c1cn(C2CC2)c2cc(N3CCNCC3)c(F)cc2c1=O [Ciprofloxacin]
VRE IC50 [1]: >10 mg/L | IC50 [1, 3]: > 10 mg/L | IC50 (Escherichia coli; [4]): < 0.01 mg/L | IC50 (Cryptococcus neoformans; [5]): > 10 mg/L | C. neoformans IC50 (Cryptococcus neoformans): >10 mg/L | IC50 (Pseudomonas aeruginosa; [6]): 0.81 mg/L (≈ 2.44 µM) | IC50 (Klebsiella pneumoniae): > 10 mg/L | IC50 [2, 9]: > 10 mg/L | MRS IC50 [2]: >10 mg/L

OC(Cn1cncn1)(Cn1cncn1)c1ccc(F)cc1F [Fluconazol]
IC50 (Cryptococcus neoformans; Cryptococcus neoformans, Table 12, highest test conc. fusaricidins 20, controls 100 μg/mL, read-out: C. neoformans IC50 (50% growth inhibitory concentration)): 2.5 mg/L (≈ 8.16 µM) | MIC (Cryptococcus neoformans; Cryptococcus neoformans, Table 12, lowest concentration that allows no detectable growth, read-out: C. neoformans MIC (minimum inhibitory concentration)): 6.3 mg/L (≈ 20.6 µM) | IC50 (Aspergillus fumigatus; Aspergillus fumigatus, Table 12, highest test conc. fusaricidins 20, controls 100 μg/mL, read-out: A. fumigatus IC50 (50% growth inhibitory concentration)): > 100 mg/L | MIC (Aspergillus fumigatus; Aspergillus fumigatus, Table 12, lowest concentration that allows no detectable growth, read-out: A. fumigatus MIC (minimum inhibitory concentration)): > 100 mg/L | IC50 (Candida albicans; Table 12, highest test conc. fusaricidins 20, controls 100 μg/mL, read-out: C. albicans IC50 (50% growth inhibitory concentration)): 1 mg/L (≈ 3.27 µM)

OC(Cn1cncn1)(Cn1cncn1)c1ccc(F)cc1F [Fluconazole]
VRE IC50 [1]: >100 mg/L | IC50 [1, 3]: > 100 mg/L | IC50 (Escherichia coli; [4]): > 100 mg/L | IC50 (Cryptococcus neoformans; [5]): 2.2 mg/L (≈ 7.18 µM) | IC50 (Pseudomonas aeruginosa; [6]): > 100 mg/L | IC50 (Klebsiella pneumoniae): > 100 mg/L | IC50 (Aspergillus fumigatus; [7]): > 100 mg/L | A. fumigatus IC50 (Aspergillus fumigatus): >100 mg/L | IC50 (Candida albicans; [8]): < 0.1 mg/L | C. albicans IC50 (Candida albicans): <0.1 mg/L | IC50 [2, 9]: > 100 mg/L | MRS IC50 [2]: >100 mg/L

CC(C)[C@@H]1NC(=O)[C@@H](C(C)C)NC(=O)[C@@H](NC(=O)CC(O)CCCCCCCCCCCCN=C(N)N)[C@@H](C)OC(=O)[C@@H](C)NC(=O)[C@@H](CC(N)=O)NC(=O)[C@@H]([C@@H](C)O)NC1=O (stereo partly drawn) [Fusaricidin A (RRR-8-32Q)] ({Pentadecanoyl(3ξ-OH,15-Gua)}-T[dV]V[d(aThr)][dN][dA]; ester 1-C)
VRE IC50 (50% growth inhibitory concentration) [1, 10]: 3.7 mg/L | VRE MIC (minimum inhibitory concentration) [1, 10]: 5.0 mg/L | E. coli IC50 (50% growth inhibitory concentration) (Escherichia coli; [11]): >20/>20 μg/mL | E. coli MIC (minimum inhibitory concentration) (Escherichia coli; [11]): >20/>20 μg/mL | C. neoformans IC50 (50% growth inhibitory concentration) (Cryptococcus neoformans; [12]): 1.2 mg/L | C. neoformans MIC (minimum inhibitory concentration) (Cryptococcus neoformans; [13]): 2.5 mg/L | P. aeruginosa IC50 (50% growth inhibitory concentration) (Pseudomonas aeruginosa; [14]): >20/>20 μg/mL | P. aeruginosa MIC (minimum inhibitory concentration) (Pseudomonas aeruginosa; [14]): >20/>20 μg/mL | A. fumigatus IC50 (50% growth inhibitory concentration) (Aspergillus fumigatus; [12]): 18.5 mg/L | A. fumigatus MIC (minimum inhibitory concentration) (Aspergillus fumigatus; [13]): > 20 mg/L | C. albicans IC50 (50% growth inhibitory concentration) (Candida albicans; [12]): 3.5 mg/L | C. albicans MIC (minimum inhibitory concentration) (Candida albicans; [13]): 5.0 mg/L | MRSA IC50 (50% growth inhibitory concentration) [2, 15]: 2.1 mg/L | MRSA MIC (minimum inhibitory concentration) [2, 15]: 2.5 mg/L
